What was measured:
[1] = Temperature stability of dyed fabrics (colour fastness, ΔE); assay type: physicochemical; details: oven 80° c. for 4 h; for ΔE: before and after the stability test
Protocol: (§1) In order to assess the stability and colour fastness of violacein and violacein derivatives dyed onto fabrics, dyed fabrics were subjected to a number of conditions. Fabrics were dyed according to Example 18 and colour coordinates and colour change before and after exposure to a given condition were determined as described in Example 18. To measure temperature stability, fabrics were incubated in an oven set to 80° c. for 4 h. To measure stability under acid and alkaline conditions, fabrics were fully submerged in water solutions set to pH 8 with NaOH and pH 5 with HCl and incubated at room temperature for 30 minutes. Fabrics were then incubated at 37° c. for 4 h. To measure stability during laundering, fabrics were washed at 30° c. under the “mix” setting of a Siemens IQ300 washing machine, then dried in a Siemens IQ300 dryer until dry. To measure artificial light stability, fabrics were placed under an LED lamp at room temperature for 16 h. To measure UV light stability, fabrics were placed under a UV lamp at room temperature for 1 h.

[2] = Acidic pH stability of dyed fabrics (colour fastness, ΔE); assay type: physicochemical; details: pH 5 with HCl
Protocol: as §1

[3] = Alkaline pH stability of dyed fabrics (colour fastness, ΔE); assay type: physicochemical; details: pH 8 with NaOH
Protocol: as §1

E. coli DH5a = assay: Antimicrobial activity of dyed Nylon 6,6 fabric: final OD600 and % inhibition; assay type: cell-based
Protocol: (§2) Violacein is reported as being a potent antibiotic, capable of inhibiting the growth of a wide range of microbial kingdoms including bacteria, yeast, fungi, viruses, protozoa and nematode. […] To test this, overnight cultures of wild-type E. coli DH5a and S. cerevisiae S228c strains were diluted in 5 mL of cultivation media (LB for E. coli, minimal media for S. cerevisiae) to a starting OD600 of 0.1. 1.5×1.5 cm dyed Nylon 6,6 fabric strips were sterilized by submerging in 75% ethanol for 15 mins and air drying in a laminar air flow hood before adding to each culture (with undyed Nylon 6,6 fabric as a negative control). […] This experiment provides evidence that all violacein derivatives display antimicrobial properties.

S. cerevisiae S228c = assay: as above; assay type: cell-based
Protocol: as §2

[4] = Acrylic, before and after the stability test
[5] = Bleached cotton, before and after the stability test
[6] = Diacetate, before and after the stability test
[7] = Nylon 6,6, before and after the stability test
[8] = Polyester, before and after the stability test
[9] = Wool, before and after the stability test

**Q.** Which results are given for `O=C1NC(c2c[nH]c3ccccc23)=C/C1=C1\C(=O)Nc2ccccc21` [deoxyviolacein]?
**A.** L ([1]; Acrylic, After test): 59.66; a ([1]; Acrylic, After test): 0.86; b ([1]; Acrylic, After test): −2.82; L ([1]; Acrylic, Before test): 59.1; a ([1]; Acrylic, Before test): 1.55; b ([1]; Acrylic, Before test): −1.29; ΔE ([1]; Acrylic): 1.77; L ([1]; Bleached cotton, After test): 63.74; a ([1]; Bleached cotton, After test): 2.09; b ([1]; Bleached cotton, After test): −8.13; L ([1]; Bleached cotton, Before test): 63.16; a ([1]; Bleached cotton, Before test): 1.56; b ([1]; Bleached cotton, Before test): −7.66; ΔE ([1]; Bleached cotton): 0.92; L ([1]; Diacetate, After test): 51.96; a ([1]; Diacetate, After test): 10.78; b ([1]; Diacetate, After test): −13.7; L ([1]; Diacetate, Before test): 51.65; a ([1]; Diacetate, Before test): 10.65; b ([1]; Diacetate, Before test): −14.56; ΔE ([1]; Diacetate): 0.92; L ([1]; Nylon 6,6, After test): 45.2; a ([1]; Nylon 6,6, After test): 6.79; b ([1]; Nylon 6,6, After test): −21.25; L ([1]; Nylon 6,6, Before test): 44.99; a ([1]; Nylon 6,6, Before test): 6.18; b ([1]; Nylon 6,6, Before test): −21.43; ΔE ([1]; Nylon 6,6): 0.67; L ([1]; Polyester, After test): 65.03; a ([1]; Polyester, After test): 2.08; b ([1]; Polyester, After test): −2.03; L ([1]; Polyester, Before test): 64.62; a ([1]; Polyester, Before test): 1.61; b ([1]; Polyester, Before test): −2.79; ΔE ([1]; Polyester): 0.98; L ([1]; Wool, After test): 66.12; a ([1]; Wool, After test): 1.93; b ([1]; Wool, After test): −0.48; L ([1]; Wool, Before test): 66.67; a ([1]; Wool, Before test): −0.09; b ([1]; Wool, Before test): −0.62; ΔE ([1]; Wool): 2.10; L ([2]; Acrylic, After test): 59.8; a ([2]; Acrylic, After test): 2.01; b ([2]; Acrylic, After test): −3.77; L ([2]; Acrylic, Before test): 58.82; a ([2]; Acrylic, Before test): 2.34; b ([2]; Acrylic, Before test): −2.86; ΔE [2, 4]: 1.38; L ([2]; Bleached cotton, After test): 60.27; a ([2]; Bleached cotton, After test): 0.74; b ([2]; Bleached cotton, After test): −8.67; L ([2]; Bleached cotton, Before test): 58.08; a ([2]; Bleached cotton, Before test): 1.02; b ([2]; Bleached cotton, Before test): −7.23; ΔE [2, 5]: 2.64; L ([2]; Diacetate, After test): 46.41; a ([2]; Diacetate, After test): 12.25; b ([2]; Diacetate, After test): −16.83; L ([2]; Diacetate, Before test): 46.86; a ([2]; Diacetate, Before test): 12.01; b ([2]; Diacetate, Before test): −17.99; ΔE [2, 6]: 1.27; L ([2]; Nylon 6,6, After test): 44.46; a ([2]; Nylon 6,6, After test): 6.37; b ([2]; Nylon 6,6, After test): −22.27; L ([2]; Nylon 6,6, Before test): 43; a ([2]; Nylon 6,6, Before test): 5.21; b ([2]; Nylon 6,6, Before test): −20.47; ΔE [2, 7]: 2.59; L ([2]; Polyester, After test): 64.95; a ([2]; Polyester, After test): 2.03; b ([2]; Polyester, After test): −5.57; L ([2]; Polyester, Before test): 62.77; a ([2]; Polyester, Before test): 2; b ([2]; Polyester, Before test): −5.04; ΔE [2, 8]: 2.24; L ([2]; Wool, After test): 64.01; a ([2]; Wool, After test): 0.41; b ([2]; Wool, After test): −0.81; L ([2]; Wool, Before test): 63.73; a ([2]; Wool, Before test): 0.62; b ([2]; Wool, Before test): −0.94; ΔE [2, 9]: 0.37; L ([3]; Acrylic, After test): 59.52; a ([3]; Acrylic, After test): 0.99; b ([3]; Acrylic, After test): −2.75; L ([3]; Acrylic, Before test): 60.91; a ([3]; Acrylic, Before test): 1.48; b ([3]; Acrylic, Before test): −2.6; ΔE [3, 4]: 1.48; L ([3]; Bleached cotton, After test): 62.83; a ([3]; Bleached cotton, After test): 2.23; b ([3]; Bleached cotton, After test): −8.43; L ([3]; Bleached cotton, Before test): 61.33; a ([3]; Bleached cotton, Before test): 1.92; b ([3]; Bleached cotton, Before test): −9.6; ΔE [3, 5]: 1.93; L ([3]; Diacetate, After test): 53.77; a ([3]; Diacetate, After test): 9.48; b ([3]; Diacetate, After test): −13.38; L ([3]; Diacetate, Before test): 53.4; a ([3]; Diacetate, Before test): 9.48; b ([3]; Diacetate, Before test): −14.88; ΔE [3, 6]: 1.54; L ([3]; Nylon 6,6, After test): 46; a ([3]; Nylon 6,6, After test): 4.44; b ([3]; Nylon 6,6, After test): −20.31; L ([3]; Nylon 6,6, Before test): 45.47; a ([3]; Nylon 6,6, Before test): 6.49; b ([3]; Nylon 6,6, Before test): −22.12; ΔE [3, 7]: 2.79; L ([3]; Polyester, After test): 67.22; a ([3]; Polyester, After test): 2.02; b ([3]; Polyester, After test): −3.88; L ([3]; Polyester, Before test): 66.7; a ([3]; Polyester, Before test): 1.3; b ([3]; Polyester, Before test): −4.19; ΔE [3, 8]: 0.94; L ([3]; Wool, After test): 66.95; a ([3]; Wool, After test): 0.82; b ([3]; Wool, After test): −0.41; L ([3]; Wool, Before test): 65.33; a ([3]; Wool, Before test): 0.19; b ([3]; Wool, Before test): 0.13; ΔE [3, 9]: 1.82; Final OD600 (E. coli DH5a; E. coli cultured overnight at 30° c. with dyed Nylon 6,6 fabric strip, starting OD600 0.1): 4.62; % Inhibition (E. coli DH5a; E. coli, dyed Nylon 6,6 fabric vs undyed fabric control): 11.45%; Final OD600 (S. cerevisiae S228c; S. cerevisiae cultured overnight at 30° c. with dyed Nylon 6,6 fabric strip, starting OD600 0.1): 4.99; % Inhibition (S. cerevisiae S228c; S. cerevisiae, dyed Nylon 6,6 fabric vs undyed fabric control): 6.90%

— patent US20260092179A1, “GENETICALLY MODIFIED HOST CELLS PRODUCING VIOLACEIN, ANALOGUES, AND DERIVATIVES THEREOF” (OCTARINE BIO APS, priority 2022, published 2026)
